Measurements from patent US9918916B2, “Active ingredient comprising a mixture of unsaturated dicarboxylic fatty acids, compositions comprising said ingredient and cosmetic or dermatological uses” (SEDERMA, priority 2014, dated 2018).

Columns and labels:
Format in all cases: cell-based
G3PDH = G3PDH activity on human adipocytes; details: 10 μm
Protocol: In this perspective, in vitro tests aiming to show an increase in adipocyte differentiation (with glycerol-3-phosphate dehydrogenase or G3PDH as the key enzyme of this differentiation) on pre-adipocyte cultures were implemented. Other in vitro assays seek to show slower lipolysis on adipocyte cultures to validate the effectiveness of these compounds. Human pre-adipocytes are seeded and induced to differentiate with a specific mixture of inducers (without indomethacine*) in the presence or absence (negative control) of the products to be tested. After 10 days, the cultures are stopped and the residual […] activity is measured by spectrophotometry on a cellular lysate. […] Results

hyaluronic acid = test: Synthesis of hyaluronic acid by human keratinocytes; details: 1 μm
Protocol: Human keratinocytes are cultured for 24 h. The cells are contacted with the products to be tested or their excipient for 3 days. The culture supernatants are recovered and a dosage of the amount of hyaluronic acid is achieved. Retinoic acid is used as a positive control. Quantification of cells present on the layer is carried out with the DNA dye (Hoechst 33258), so as to adjust the dosages to the number of cells.

normal human melanocytes = test: Inhibition of melanin synthesis on human melanocytes; details: 0.01%
Protocol: Normal human melanocytes are cultured in their maintenance medium and then contacted with the products to be tested in the test medium for 10 days. After the contact, melanins are extracted from the cells and assayed by spectrophotometry (490 nm). An estimate of cell number is performed after cultivation using a protein assay by the BCA method. Melanin concentrations are normalized by the sample protein content.

Question: Which “stimulation of G3PDH activity vs. control (positive control)” value (G3PDH) does the source give for `CCc1ccc(CCOc2ccc(CC3SC(=O)NC3=O)cc2)nc1` (stereo not drawn) [Pioglytazone] here?
Answer: +712%

Question: For `CC1=C(/C=C/C(C)=C/C=C/C(C)=C/C(=O)O)C(C)(C)CCC1` [Retinoic Acid], which “stimulation of hyaluronic acid synthesis vs. control (positive control)” value (hyaluronic acid) is on record?
Answer: +106%

Question: With `OC[C@H]1O[C@@H](Oc2ccc(O)cc2)[C@H](O)[C@@H](O)[C@@H]1O` [arbutine] as the compound, how does the “inhibition compared to the control (melanin, positive reference)” value (normal human melanocytes) read?
Answer: 33%
